Measured values from ChEMBL document CHEMBL4507276 (2021).

Tests used:
Conditions in all cases: Compound concentration 1000.0 nM
[1] = target: Activin receptor type-2A (Homo sapiens) (UniProt P27037)
[2] = target: RAC-alpha serine/threonine-protein kinase (Homo sapiens) (UniProt P31749)
[3] = target: Calcium/calmodulin-dependent protein kinase type 1G (Homo sapiens) (UniProt Q96NX5)
[4] = target: Cyclin-dependent kinase 9 (Homo sapiens) (UniProt P50750)
[5] = target: Tyrosine-protein kinase CSK (Homo sapiens) (UniProt P41240)
[6] = target: Epithelial discoidin domain-containing receptor 1 (Homo sapiens) (UniProt Q08345)
[7] = system: Epidermal growth factor receptor (Homo sapiens), P00533 [UNDEFINED MUTATION]
[8] = target: Focal adhesion kinase 1 (Homo sapiens) (UniProt Q05397)
[9] = system: T1, Receptor-type tyrosine-protein kinase FLT3 (Homo sapiens), P36888 [D835Y]
T1 sequence (whole entry): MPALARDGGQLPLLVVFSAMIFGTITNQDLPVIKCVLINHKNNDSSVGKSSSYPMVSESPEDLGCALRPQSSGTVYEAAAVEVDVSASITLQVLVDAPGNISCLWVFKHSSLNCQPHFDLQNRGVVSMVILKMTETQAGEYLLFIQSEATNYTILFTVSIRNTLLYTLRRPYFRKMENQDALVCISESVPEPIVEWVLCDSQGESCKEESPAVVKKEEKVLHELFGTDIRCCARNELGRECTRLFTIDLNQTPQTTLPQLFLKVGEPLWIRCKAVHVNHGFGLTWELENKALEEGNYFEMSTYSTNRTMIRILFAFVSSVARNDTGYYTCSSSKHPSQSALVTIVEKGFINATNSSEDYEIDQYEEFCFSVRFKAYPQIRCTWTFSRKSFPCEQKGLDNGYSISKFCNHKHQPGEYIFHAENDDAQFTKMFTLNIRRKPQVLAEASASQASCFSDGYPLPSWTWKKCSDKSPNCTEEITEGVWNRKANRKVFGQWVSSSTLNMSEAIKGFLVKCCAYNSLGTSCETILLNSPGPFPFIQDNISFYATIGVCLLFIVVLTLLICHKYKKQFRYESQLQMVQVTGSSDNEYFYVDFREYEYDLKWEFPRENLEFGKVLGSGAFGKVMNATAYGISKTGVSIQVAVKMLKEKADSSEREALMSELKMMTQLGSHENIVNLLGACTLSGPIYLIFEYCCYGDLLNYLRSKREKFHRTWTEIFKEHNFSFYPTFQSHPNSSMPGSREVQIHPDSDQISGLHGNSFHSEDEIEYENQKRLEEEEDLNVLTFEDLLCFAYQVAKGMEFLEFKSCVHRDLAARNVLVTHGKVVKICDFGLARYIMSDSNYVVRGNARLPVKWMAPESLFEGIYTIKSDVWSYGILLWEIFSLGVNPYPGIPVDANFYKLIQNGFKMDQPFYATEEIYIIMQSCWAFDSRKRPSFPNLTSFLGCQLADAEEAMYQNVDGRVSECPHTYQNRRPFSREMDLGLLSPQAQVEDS

[10] = system: Receptor-type tyrosine-protein kinase FLT3 (Homo sapiens), P36888 [UNDEFINED MUTATION]
[11] = target: Tyrosine-protein kinase FRK (Homo sapiens) (UniProt P42685)
[12] = target: Glycogen synthase kinase-3 beta (Homo sapiens) (UniProt P49841)
[13] = target: Insulin receptor (Homo sapiens) (UniProt P06213)
[14] = target: MAP/microtubule affinity-regulating kinase 3 (Homo sapiens) (UniProt P27448)
[15] = target: Myosin light chain kinase (Homo sapiens) (UniProt Q32MK0)
[16] = target: Mitogen-activated protein kinase kinase kinase 9 (Homo sapiens) (UniProt P80192)
[17] = target: Serine/threonine-protein kinase NIM1 (Homo sapiens) (UniProt Q8IY84)
[18] = target: Mitogen-activated protein kinase 11 (Homo sapiens) (UniProt Q15759)
[19] = target: Serine/threonine-protein kinase PAK 4 (Homo sapiens) (UniProt O96013)
[20] = target: Platelet-derived growth factor receptor beta (Homo sapiens) (UniProt P09619)
[21] = target: Phosphorylase b kinase gamma catalytic chain, skeletal muscle/heart isoform (Homo sapiens) (UniProt Q16816)
[22] = system: Phosphatidylinositol 4,5-bisphosphate 3-kinase catalytic subunit alpha isoform (Homo sapiens), P42336 [H1047L]
[23] = system: Phosphatidylinositol 4,5-bisphosphate 3-kinase catalytic subunit alpha isoform (Homo sapiens), P42336 [Q546K]
[24] = target: Ribosomal protein S6 kinase alpha-4 (Homo sapiens) (UniProt O75676)
[25] = target: Serine/threonine-protein kinase SIK1 (Homo sapiens) (UniProt P57059)
[26] = target: Serine/threonine-protein kinase ULK3 (Homo sapiens) (UniProt Q6PHR2)
[27] = target: Serine/threonine-protein kinase WNK4 (Homo sapiens) (UniProt Q96J92)

Measured: residual activity

Phosphorylase b kinase gamma catalytic chain, skeletal muscle/heart isoform (Homo sapiens), sequence (Q16816 whole entry, looked up, canonical isoform): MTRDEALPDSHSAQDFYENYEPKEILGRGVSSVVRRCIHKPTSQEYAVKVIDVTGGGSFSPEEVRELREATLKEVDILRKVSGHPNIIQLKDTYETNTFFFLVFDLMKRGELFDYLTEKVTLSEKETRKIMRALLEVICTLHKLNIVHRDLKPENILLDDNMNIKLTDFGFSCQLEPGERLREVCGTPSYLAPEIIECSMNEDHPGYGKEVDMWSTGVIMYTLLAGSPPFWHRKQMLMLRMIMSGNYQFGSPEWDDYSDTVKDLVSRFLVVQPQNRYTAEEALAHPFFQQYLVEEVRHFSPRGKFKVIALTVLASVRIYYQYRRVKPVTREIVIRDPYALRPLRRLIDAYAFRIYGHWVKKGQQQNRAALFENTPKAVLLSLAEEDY
RAC-alpha serine/threonine-protein kinase (Homo sapiens), sequence (P31749 whole entry): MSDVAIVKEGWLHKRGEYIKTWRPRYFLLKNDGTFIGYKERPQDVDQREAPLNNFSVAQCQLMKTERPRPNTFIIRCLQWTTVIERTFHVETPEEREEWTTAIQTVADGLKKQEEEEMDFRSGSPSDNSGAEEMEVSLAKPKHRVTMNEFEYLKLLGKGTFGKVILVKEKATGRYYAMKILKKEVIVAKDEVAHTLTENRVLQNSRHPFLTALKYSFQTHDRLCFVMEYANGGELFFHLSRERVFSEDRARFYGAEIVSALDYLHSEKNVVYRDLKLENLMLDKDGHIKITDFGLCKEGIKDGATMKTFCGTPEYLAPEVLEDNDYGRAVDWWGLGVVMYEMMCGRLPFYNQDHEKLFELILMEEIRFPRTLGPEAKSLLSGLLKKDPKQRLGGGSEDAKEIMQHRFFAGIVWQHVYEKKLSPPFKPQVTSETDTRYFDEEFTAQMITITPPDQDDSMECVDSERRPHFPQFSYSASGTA
Mitogen-activated protein kinase kinase kinase 9 (Homo sapiens), sequence (P80192 whole entry, looked up): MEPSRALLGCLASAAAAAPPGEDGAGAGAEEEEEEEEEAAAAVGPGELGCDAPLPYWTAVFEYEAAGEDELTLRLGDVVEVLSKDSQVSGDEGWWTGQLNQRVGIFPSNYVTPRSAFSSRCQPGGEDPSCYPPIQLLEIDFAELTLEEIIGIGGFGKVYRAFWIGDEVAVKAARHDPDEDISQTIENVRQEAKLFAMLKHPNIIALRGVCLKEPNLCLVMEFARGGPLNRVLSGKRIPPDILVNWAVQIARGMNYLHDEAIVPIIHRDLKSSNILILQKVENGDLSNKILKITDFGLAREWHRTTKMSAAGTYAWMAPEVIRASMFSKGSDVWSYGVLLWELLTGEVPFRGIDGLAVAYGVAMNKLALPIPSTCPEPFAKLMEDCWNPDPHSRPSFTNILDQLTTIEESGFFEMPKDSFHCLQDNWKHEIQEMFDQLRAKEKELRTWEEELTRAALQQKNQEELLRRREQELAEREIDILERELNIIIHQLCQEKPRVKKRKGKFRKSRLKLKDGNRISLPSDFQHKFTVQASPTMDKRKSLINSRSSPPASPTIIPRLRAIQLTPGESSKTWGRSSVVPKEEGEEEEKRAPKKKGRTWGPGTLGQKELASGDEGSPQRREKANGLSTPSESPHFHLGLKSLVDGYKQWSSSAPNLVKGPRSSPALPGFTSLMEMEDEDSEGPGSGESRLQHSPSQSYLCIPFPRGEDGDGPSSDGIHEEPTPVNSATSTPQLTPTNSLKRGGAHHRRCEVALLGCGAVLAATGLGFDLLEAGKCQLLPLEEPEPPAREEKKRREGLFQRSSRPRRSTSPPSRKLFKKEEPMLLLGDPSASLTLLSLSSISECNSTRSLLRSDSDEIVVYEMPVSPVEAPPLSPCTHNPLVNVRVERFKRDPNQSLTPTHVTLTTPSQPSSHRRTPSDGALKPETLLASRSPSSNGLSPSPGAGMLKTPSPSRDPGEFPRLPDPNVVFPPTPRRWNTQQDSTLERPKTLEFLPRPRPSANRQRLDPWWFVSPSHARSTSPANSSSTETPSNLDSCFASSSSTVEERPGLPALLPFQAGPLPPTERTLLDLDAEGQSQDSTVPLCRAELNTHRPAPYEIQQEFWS
Serine/threonine-protein kinase WNK4 (Homo sapiens), sequence (Q96J92 whole entry): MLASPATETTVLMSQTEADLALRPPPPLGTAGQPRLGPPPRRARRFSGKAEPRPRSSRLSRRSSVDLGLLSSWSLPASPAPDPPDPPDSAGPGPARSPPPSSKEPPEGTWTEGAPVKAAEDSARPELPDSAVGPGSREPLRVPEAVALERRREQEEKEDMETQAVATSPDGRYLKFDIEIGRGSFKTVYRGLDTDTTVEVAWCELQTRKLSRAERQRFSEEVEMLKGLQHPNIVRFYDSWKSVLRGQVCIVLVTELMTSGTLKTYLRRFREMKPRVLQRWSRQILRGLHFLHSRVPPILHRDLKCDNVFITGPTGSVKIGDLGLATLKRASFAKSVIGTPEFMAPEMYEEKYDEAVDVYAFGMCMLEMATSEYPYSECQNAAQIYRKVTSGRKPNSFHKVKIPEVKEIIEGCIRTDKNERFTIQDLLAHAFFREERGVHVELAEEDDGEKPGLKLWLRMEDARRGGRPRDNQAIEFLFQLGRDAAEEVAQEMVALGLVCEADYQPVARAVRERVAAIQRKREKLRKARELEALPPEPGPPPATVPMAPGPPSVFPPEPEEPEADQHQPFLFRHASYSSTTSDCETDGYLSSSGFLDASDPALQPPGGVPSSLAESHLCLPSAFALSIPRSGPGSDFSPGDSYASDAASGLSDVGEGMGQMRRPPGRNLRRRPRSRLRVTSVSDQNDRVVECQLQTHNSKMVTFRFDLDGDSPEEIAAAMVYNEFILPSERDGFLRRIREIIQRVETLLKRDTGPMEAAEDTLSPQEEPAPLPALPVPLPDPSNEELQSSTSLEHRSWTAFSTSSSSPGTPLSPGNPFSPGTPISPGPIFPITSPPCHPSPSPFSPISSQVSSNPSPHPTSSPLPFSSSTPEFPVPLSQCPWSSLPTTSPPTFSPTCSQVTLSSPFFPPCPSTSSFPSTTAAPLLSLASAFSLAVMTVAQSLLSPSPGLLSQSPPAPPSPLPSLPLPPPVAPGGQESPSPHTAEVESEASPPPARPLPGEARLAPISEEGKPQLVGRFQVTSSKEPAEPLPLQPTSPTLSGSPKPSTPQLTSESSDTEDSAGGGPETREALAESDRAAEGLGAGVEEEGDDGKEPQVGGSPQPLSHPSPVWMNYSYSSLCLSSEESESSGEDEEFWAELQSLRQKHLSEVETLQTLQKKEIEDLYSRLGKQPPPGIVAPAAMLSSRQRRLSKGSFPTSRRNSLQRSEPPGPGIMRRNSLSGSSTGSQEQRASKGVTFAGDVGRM
Tyrosine-protein kinase FRK (Homo sapiens), sequence (P42685 whole entry): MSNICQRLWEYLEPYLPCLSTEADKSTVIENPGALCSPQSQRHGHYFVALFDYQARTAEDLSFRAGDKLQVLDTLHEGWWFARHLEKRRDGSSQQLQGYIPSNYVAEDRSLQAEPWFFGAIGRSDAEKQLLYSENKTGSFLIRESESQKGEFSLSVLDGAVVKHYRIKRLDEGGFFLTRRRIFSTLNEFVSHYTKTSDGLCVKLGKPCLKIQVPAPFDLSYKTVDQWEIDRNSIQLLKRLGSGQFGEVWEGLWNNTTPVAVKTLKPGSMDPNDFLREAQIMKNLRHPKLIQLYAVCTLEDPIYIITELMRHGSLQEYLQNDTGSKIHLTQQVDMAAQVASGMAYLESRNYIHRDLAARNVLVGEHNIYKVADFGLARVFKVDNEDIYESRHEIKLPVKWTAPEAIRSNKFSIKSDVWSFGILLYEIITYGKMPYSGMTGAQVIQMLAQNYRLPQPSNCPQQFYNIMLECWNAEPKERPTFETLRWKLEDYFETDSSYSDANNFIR
Insulin receptor (Homo sapiens), sequence (P06213 28-758 limits assumed): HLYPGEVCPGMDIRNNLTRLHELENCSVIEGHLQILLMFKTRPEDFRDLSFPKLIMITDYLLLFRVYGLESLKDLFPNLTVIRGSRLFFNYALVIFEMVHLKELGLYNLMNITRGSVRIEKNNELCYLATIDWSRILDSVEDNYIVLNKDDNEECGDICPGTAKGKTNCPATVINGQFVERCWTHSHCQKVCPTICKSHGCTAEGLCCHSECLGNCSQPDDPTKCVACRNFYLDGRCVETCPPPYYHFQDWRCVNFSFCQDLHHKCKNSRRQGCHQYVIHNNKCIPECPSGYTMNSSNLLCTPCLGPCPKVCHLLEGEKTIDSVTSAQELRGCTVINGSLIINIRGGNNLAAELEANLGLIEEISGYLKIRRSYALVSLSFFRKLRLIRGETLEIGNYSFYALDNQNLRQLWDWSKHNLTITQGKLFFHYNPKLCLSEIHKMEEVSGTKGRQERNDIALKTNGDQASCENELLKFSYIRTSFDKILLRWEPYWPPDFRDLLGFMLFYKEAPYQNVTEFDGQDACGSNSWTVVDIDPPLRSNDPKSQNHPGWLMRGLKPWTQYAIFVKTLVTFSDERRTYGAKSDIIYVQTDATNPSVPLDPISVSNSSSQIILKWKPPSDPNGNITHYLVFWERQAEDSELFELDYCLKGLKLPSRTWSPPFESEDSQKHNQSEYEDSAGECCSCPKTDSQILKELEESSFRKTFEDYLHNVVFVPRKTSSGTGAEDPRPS
Insulin receptor (Homo sapiens), sequence (P06213 763-1382 limits assumed): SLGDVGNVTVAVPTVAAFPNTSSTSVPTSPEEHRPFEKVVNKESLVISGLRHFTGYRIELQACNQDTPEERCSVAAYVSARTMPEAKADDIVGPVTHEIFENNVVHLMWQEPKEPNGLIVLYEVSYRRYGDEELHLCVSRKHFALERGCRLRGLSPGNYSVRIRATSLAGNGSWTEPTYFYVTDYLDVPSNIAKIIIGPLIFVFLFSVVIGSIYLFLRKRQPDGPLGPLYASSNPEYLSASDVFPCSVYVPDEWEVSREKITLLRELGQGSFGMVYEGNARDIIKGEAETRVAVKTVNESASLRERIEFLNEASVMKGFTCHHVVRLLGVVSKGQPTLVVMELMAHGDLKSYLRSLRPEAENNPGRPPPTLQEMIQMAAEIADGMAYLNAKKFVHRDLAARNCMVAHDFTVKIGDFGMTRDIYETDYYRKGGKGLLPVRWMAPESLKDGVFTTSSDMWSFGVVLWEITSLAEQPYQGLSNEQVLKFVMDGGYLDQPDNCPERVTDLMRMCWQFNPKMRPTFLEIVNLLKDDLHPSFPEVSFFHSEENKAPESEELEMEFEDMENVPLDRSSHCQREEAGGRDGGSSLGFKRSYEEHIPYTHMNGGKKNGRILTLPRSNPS

CN(C)C(=O)Cn1cc(-c2nc(C3(c4ccc(-c5cnc(N)nc5)cc4)CC3)no2)cn1 [BI 0153]
inactive: [1] 84% | [2] 97% | [3] 100% | [4] 100% | [5] 100% | [6] 86% | [7] 80% | [8] 100% | [9] 100% | [10] 100% | [11] 100% | [12] 81% | [13] 90% | [14] 100% | [15] 100% | [16] 91% | [17] 83% | [18] 86% | [19] 100% | [20] 94% | [21] 97% | [22] 73% | [23] 100% | [24] 91% | [25] 86% | [26] 68% | [27] 80%

CN(C)C(=O)Cn1cc(-c2nc([C@@](C)(c3ccc(-c4cnc(N)nc4)cc3)C3CC3)no2)cn1 [BI 665915]
inactive: [1] 81% | [2] 94% | [3] 100% | [4] 96% | [5] 100% | [6] 90% | [7] 100% | [8] 100% | [9] 85% | [10] 100% | [11] 90% | [12] 100% | [13] 89% | [14] 99% | [15] 100% | [16] 100% | [17] 86% | [18] 97% | [19] 96% | [20] 82% | [21] 77% | [22] 100% | [23] 95% | [24] 100% | [25] 52% | [26] 86% | [27] 93%
